How the values were obtained:
Assay in all cases: Test E postemergence
barnyardgrass = type: in vivo, Echinochloa crus-galli; details: Echinochloa crus-galli, post-emergence, read-out: Plant response rating, Barnyardgrass
Text: Seeds of plant species selected from corn (Zea mays), soybean (Glycine max), velvetleaf (Abutilon theophrasti), lambsquarters (Chenopodium album), wild poinsettia (Euphorbia heterophylla), palmer pigweed (Amaranthus palmeri), waterhemp (common waterhemp, Amaranthus rudis), surinam grass (Brachiaria decumbens), large (Lg) crabgrass (Digitaria sanguinalis), Brazilian crabgrass (Digitaria horizontalis), fall panicum (Panicum dichotomiflorum), giant foxtail (Setaria faberii), green foxtail (Setaria viridis), goosegrass (Eleusine indica), johnsongrass (Sorghum halepense), ragweed (common ragweed, Ambrosia elatior), barnyardgrass (Echinochloa crus-galli), sandbur (southern sandbur, Cenchrus echinatus), arrowleaf sida (Sida rhombifolia), Italian ryegrass (Lolium multiflorum), dayflower (Virginia (VA) dayflower, Commelina virginica), field bindweed (Convolvulus arvensis), morningglory (Ipomoea coccinea), nightshade (eastern black nightshade, Solanum ptycanthum), kochia (Kochia scoparia), yellow nutsedge (Cyperus esculentus), cocklebur (common cocklebur, Xanthium strumarium), smartweed (ladysthumb smartweed, and hairy beggarticks (Bidens pilosa), were planted into a silt loam soil and treated preemergence with test chemicals formulated in a non-phytotoxic solvent mixture which included a surfactant.
At the same time, plants from these crop and weed species and also horseweed (Canada horseweed, Conyza canadensis), waterhemp_RES1, (ALS & Triazine resistant common waterhemp, Amaranthus rudis), and waterhemp_RES2, (ALS & HPPD resistant common waterhemp, Amaranthus rudis) were planted in pots containing Redi-Earth® planting medium (Scotts Company, 14111 Scottslawn Road, Marysville, Ohio 43041) comprising spaghnum peat moss, vermiculite, wetting agent and starter nutrients were treated with postemergence applications of test chemicals formulated in the same manner. Plants ranged in height from 2 to 18 cm for postemergence treatments (1- to 4-leaf stage). Treated plants and controls were maintained in a greenhouse for 14 to 21 days, after which time all species were compared to controls and visually evaluated. Plant response ratings, summarized in Table E, are based on a scale of 0 to 100 where 0 is no effect and 100 is complete control. A dash (-) response means no test result.

waterhemp = type: in vivo, Amaranthus rudis; details: Amaranthus tuberculatus, post-emergence, Postemergence, scale 0 to 100, read-out: Plant response rating, Waterhemp
In short: (§1)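 Response was scored visually on a 0-100 scale (100 = complete control) versus controls after 14 to 21 days in the greenhouse. Test chemicals, formulated with surfactant in a non-phytotoxic solvent mixture, had been applied preemergence to seeds in silt loam soil or postemergence to 1- to 4-leaf plants in potting medium.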

[1] = system: waterhemp_RES2 (ALS & HPPD resistant common waterhemp); type: in vivo, Amaranthus rudis; details: Amaranthus tuberculatus, post-emergence, read-out: Plant response rating, Waterhemp_RES2
In short: as §1

[2] = Postemergence, 31 g ai/ha, scale 0 to 100
[3] = Postemergence, 62 g ai/ha, scale 0 to 100
[4] = Postemergence, 125 g ai/ha, scale 0 to 100
[5] = Postemergence, 250 g ai/ha, scale 0 to 100
[6] = postemergence, 16 g ai/ha, scale 0 to 100, 0 no effect, 100 complete control

Question: `Fc1cnc(Oc2ccccc2-n2cc(Br)cn2)nc1` [Compound 10, 2-[2-(4-bromo-1H-pyrazol-1-yl)phenoxy]-5-fluoropyrimidine] was tested. Which pest or weed control at 31 g/ha (barnyardgrass; [2]) did it give?
Answer: 0%

Question: What about the pest or weed control at 62 g/ha (barnyardgrass; [3]) of the same molecule?
Answer: 0%

Question: And the pest or weed control at 125 g/ha (barnyardgrass; [4])?
Answer: 0%

Question: What about the pest or weed control at 250 g/ha (barnyardgrass; [5]) of the same molecule?
Answer: 0%

Question: What about the pest or weed control at 16 g/ha (barnyardgrass; [6]) of the same molecule?
Answer: 0%

Question: What about the pest or weed control at 31 g/ha (waterhemp; 31 g ai/ha) of the same molecule?
Answer: 80%

Question: And the pest or weed control at 62 g/ha (waterhemp; 62 g ai/ha)?
Answer: 85%

Question: And the pest or weed control at 125 g/ha (waterhemp; 125 g ai/ha)?
Answer: 95%

Question: And the pest or weed control at 250 g/ha (waterhemp; 250 g ai/ha)?
Answer: 95%

Question: What about the pest or weed control at 31 g/ha [1, 2] of the same molecule?
Answer: 60%

Question: And the pest or weed control at 62 g/ha [1, 3]?
Answer: 75%

Question: What about the pest or weed control at 125 g/ha [1, 4] of the same molecule?
Answer: 80%

Question: And the pest or weed control at 250 g/ha [1, 5]?
Answer: 90%

Question: What about the pest or weed control at 16 g/ha [1, 6] of the same molecule?
Answer: 50%
